Drawing on patent publication US20250195483A1, “SPIRO PIPERIDINE DERIVATIVES AS INHIBITORS OF APOL1 AND METHODS OF USING SAME” (Vertex Pharmaceuticals Incorporated, priority 2022, published 2025), this text covers IC50 for 43 molecules.

Some results are limits rather than exact numbers.

The assay concerns the target T1, APOL1 (Homo sapiens, UniProt O14791).
T1 sequence (O14791 1-398): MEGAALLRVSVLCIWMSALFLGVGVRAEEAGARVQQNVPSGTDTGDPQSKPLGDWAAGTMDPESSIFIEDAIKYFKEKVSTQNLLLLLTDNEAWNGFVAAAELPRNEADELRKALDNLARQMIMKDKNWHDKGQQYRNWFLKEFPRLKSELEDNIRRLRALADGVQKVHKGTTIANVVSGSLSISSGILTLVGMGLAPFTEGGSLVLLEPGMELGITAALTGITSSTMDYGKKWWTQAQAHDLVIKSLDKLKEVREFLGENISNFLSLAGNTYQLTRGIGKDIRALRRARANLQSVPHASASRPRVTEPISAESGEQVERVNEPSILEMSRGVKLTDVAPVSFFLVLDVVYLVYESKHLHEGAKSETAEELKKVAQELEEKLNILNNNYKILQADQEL
Briefly: MultiTox-Fluor Multiplex Cytotoxicity Assay, tet-inducible APOL1 T-REx-HEK293 cells (G0, G1 or G2 clone not specified for Table 20). The class given is cell-based. To be noted: tet-induced, 24 hours with compound, ratio of dead to live cells, read-out: IP50 (i.e., IC50 for cell proliferation). Here is the method: Human embryonic kidney (HEK293) cell lines containing a tet-inducible expression system (T-REx™; Invitrogen, Carlsbad, CA) and Adeno-associated virus site 1 pAAVS1-Puro-APOL1 G0 or pAAVS1-Puro-APOL1 G1 or pAAVS1-Puro-APOL1 G2 Clones G0 DC2.13, G1 DC3.25, and G2 DC4.44 were grown in a T-225 flask at ˜90% confluency in cell growth media (DMEM, 10% Tet-free FBS, 2 mM L-glutamine, 100 Units/mL penicillin-streptomycin, 5 μg/mL blasticidin S HCl, 1 μg/mL puromycin dihydrochloride). Cells were washed with DPBS and then trypsinized to dissociate from the flask. Media was used to quench the trypsin, cells were then pelleted at 200 g and resuspended in fresh cell assay media (DMEM, 2% Tet-free FBS, 2 mM L-glutamine, 100 Units/mL penicillin-streptomycin). Cells were counted and diluted to 1.17×10^6 cells/mL. 20 μL of cells (23,400/well) were dispensed in every well of a 384-well Poly-D-Lysine coated plate using the Multidrop dispenser. The plates were then incubated at room temperature for one hour.
Tetracycline is needed to induce APOL1 expression. 1 mg/mL tet stock in water was diluted to 250 ng/mL (5×) in cell assay media. 60 μL of cell assay media (no tet control) was dispensed in columns 1 and 24, and 60 μL of 5× tet in 384-PP-round bottom plate was dispensed in columns 2 to 23 with the Multidrop dispenser.
Assay ready plates from the Global Compound Archive were ordered using template 384_APOL1Cell_DR10n2_50 uM_v3. Compounds were dispensed at 200 nL in DMSO. The final top concentration was 10 μM with a 10 point 3-fold dilution in duplicate in the MultiTox assay.
20 μL was transferred from the 5× tet plate to the ARP and mixed, then 5 μL of 5× tet and the compounds were transferred to the cell plate and mixed using the Bravo. The cell plate was placed in the humidified 37° C. 5% CO2 incubator for 24 hours.
The MultiTox-Fluor Multiplex Cytotoxicity Assay was performed in accordance with the manufacturer's protocol. After cells were incubated with tet and compound for 24 hours, 25 μL of 1× MultiTox reagent was added to each well using the Multidrop dispenser; the plates were placed on a plate shaker (600 rpm) for 2 minutes, then centrifuged briefly and placed back in the 37° C. incubator for 30 minutes. The cell viability (excitation: 400 nm, emission: 486 nm) and cytotoxicity (excitation: 485 nm, emission: 535 nm) were read using the EnVision plate reader. A ratio of dead (cytotoxicity) to live (viability) cells was reported. Data was exported and analyzed in Genedata. Data was normalized using percent of control, no tet (100% viability), and 50 ng/mL tet treated (0% viability), and fit using Smart Fit settings in Genedata.

As for `CS(=O)(=O)CCn1cc(CN2CCC3(CC2)C(=O)Nc2ccc(Br)cc23)cn1` [Compound 22], the IC50 is 50 to 500 nM. Take `CNC(=O)C1OC2(CCN(Cc3cnn(-c4cnc(C)nc4)c3)CC2)c2cc(Cl)ccc21` (stereo not shown) [Compound 211, 5-chloro-N-methyl-1′-[[1-(2-methylpyrimidin-5-yl)pyrazol-4-yl]methyl]spiro[1H-isobenzofuran-3,4′-piperidine]-1-carboxamide]: the IC50 was at most 50 nM. `CC(C)(O)[C@H](O)Cn1cc(CN2CCC3(CC2)OC(C(N)=O)c2ccc(Cl)cc23)cn1` (stereo partly drawn) [Compound 278, 5-chloro-1′-[[1-[(2R)-2,3-dihydroxy-3-methyl-butyl]pyrazol-4-yl]methyl]spiro[1H-isobenzofuran-3,4′-piperidine]-1-carboxamide]: the IC50 is at most 50 nM.

As for `C[C@H]1C[C@@]2(CCN1Cc1cnn(C[C@@H](O)C(C)(C)O)c1)OCCc1ccc(Cl)cc12` [Compound 124], the IC50 is at most 50 nM. The same measure for `C[C@H]1C[C@@]2(CCN1Cc1cn(Cc3cnn4c3C(=O)N(C)CC4)nn1)OCCc1ccc(Cl)cc12` [Compound 166]: 50 to 500 nM; for `CN1C(=O)C2(CCN(C[C@H]3C[C@@H](NC(=O)c4cc(C5CC5)no4)C3)CC2)c2cc(Cl)ccc21` [Compound 60, N-[3-[(5-chloro-1-methyl-2-oxo-spiro[indoline-3,4′-piperidine]-1′-yl)methyl]cyclobutyl]-3-cyclopropyl-isoxazole-5-carboxamide]: at least 500 nM; for `NC(=O)C1OC2(CCN(Cc3ccc(S(N)(=O)=O)cc3F)CC2)c2cc(Cl)ccc21` (stereo not shown) [Compound 243]: 50 to 500 nM.

As for `C[C@H]1C[C@@]2(CCN1Cc1cn(CCc3nccc(=O)[nH]3)nn1)OCCc1ccc(Cl)cc12` [Compound 183], the IC50 lay in the range of 50 to 500 nM. On to `CS(=O)(=O)c1ccc(CN2CCC3(CC2)OC(C(N)=O)c2ccc(Cl)cc23)c(F)c1` (stereo not shown) [Compound 224], for which the IC50 is at least 500 nM. With `Cn1ccc(CN2CCC3(CC2)OC(C(N)=O)c2ccc(Cl)cc23)cc1=O` (stereo not shown) [Compound 269] the figure was at least 500 nM; with `NC(=O)C1OC2(CCN(Cc3cncnc3)CC2)c2cc(Cl)ccc21` (stereo not shown) [Compound 252], at least 500 nM.

As for `C[C@H]1C[C@@]2(CCN1Cc1cn(CC(O)CO)nn1)OCCc1ccc(Cl)cc12` (stereo partly shown) [Compound 152], the IC50 is at most 50 nM. For `C[C@H]1C[C@@]2(CCN1Cc1cn(C(CO)CO)nn1)OCCc1ccc(Cl)cc12` [Compound 151], the IC50 was at least 500 nM.

Take `Cc1ccc2c(c1)C1(CCN(Cc3cnn(CC4(C)COC4)c3)CC1)C(=O)N2` [Compound 24]: the IC50 is at least 500 nM. With `C[C@H]1C[C@@]2(CCN1Cc1cn(Cc3cn(C4COC4)nn3)nn1)OCCc1ccc(Cl)cc12` [Compound 181] the figure was at most 50 nM; with `NC(=O)C1OC2(CCN(Cc3cnn(CC(O)C4(O)CCOCC4)c3)CC2)c2cc(Cl)ccc21` (stereo not shown) [Compound 281], at most 50 nM; with `NC(=O)C1OC2(CCN(Cc3cnn4c3NCCC4)CC2)c2cc(Cl)ccc21` (stereo not shown) [Compound 254], at least 500 nM. Turning to `C[C@H]1C[C@@]2(CCN1Cc1cnn(CCO)c1)OCCc1ccc(Cl)cc12` [Compound 103], the IC50 was at most 50 nM. For the molecule `O=C(O)C1OC2(CCN(Cc3cnn(-c4ccccc4)c3)CC2)c2cc(Cl)ccc21` (stereo not shown) [Compound 192, 5-chloro-1′-[(1-phenylpyrazol-4-yl)methyl]spiro[1H-isobenzofuran-3,4′-piperidine]-1-carboxylic acid], the IC50 was at least 500 nM.

Consider `Cc1cccc(CN2CCC3(CC2)OC(C(N)=O)c2ccc(Cl)cc23)n1` (stereo not shown) [Compound 268], for which the IC50 was at least 500 nM. With `Cc1ncc(CN2CCC3(CC2)OC(C(N)=O)c2ccc(Cl)cc23)o1` (stereo not shown) [Compound 260] the figure was 50 to 500 nM; with `O=C1Nc2ccc(Cl)cc2C12CCN(Cc1cn[nH]c1)CC2` [Compound 11], 50 to 500 nM. The same measure for `C[C@H]1C[C@@]2(CCN1Cc1cn(C(C)(CO)CO)nn1)OCCc1ccc(Cl)cc12` [Compound 153]: at least 500 nM; for `C[C@H]1C[C@@]2(CCN1Cc1cnn(C3CCS(=O)(=O)C3)c1)OCCc1ccc(Cl)cc12` (stereo partly shown) [Compound 116]: at most 50 nM.

In the case of `CCc1ccc2c(c1)C1(CCN(Cc3cnn(-c4ccccc4)c3)CC1)OC2C(=O)NC` (stereo not shown) [Compound 206, 5-ethyl-N-methyl-1′-[(1-phenylpyrazol-4-yl)methyl]spiro[1H-isobenzofuran-3,4′-piperidine]-1-carboxamide], the IC50 was in the range of 50 to 500 nM. With `CS(=O)(=O)c1ccc(CN2CCC3(CC2)OC(C(N)=O)c2ccc(Cl)cc23)cc1` (stereo not shown) [Compound 223] the figure was 50 to 500 nM; with `C[C@H]1C[C@@]2(CCN1Cc1cnn(C[C@H](O)C(C)(C)O)c1)OCCc1ccc(Cl)cc12` [Compound 125], at most 50 nM. With `CC1COC2(CCN(Cc3cnn(C)c3)CC2)c2ccccc21` (stereo not shown) [Compound 89, 4-methyl-1′-[(1-methylpyrazol-4-yl)methyl]spiro[isochromane-1,4′-piperidine]] the figure was at least 500 nM; with `C[C@H]1C[C@@]2(CCN1Cc1cn[nH]c1)OCCc1ccc(Cl)cc12` [Compound 104], at most 50 nM; with `Cc1ccc2c(c1)C1(CCN(Cc3cnn(C)c3)C(C)C1)OCC2` (stereo not shown) [Compound 92], at most 50 nM. As for `C[C@H]1C[C@@]2(CCN1Cc1c[nH]nn1)OCCc1ccc(Cl)cc12` [Compound 106], the IC50 was at most 50 nM. Turning to `C[C@H]1C[C@@]2(CCN1Cc1cnn(C)c1)OCC(O)c1ccc(Cl)cc12` (stereo partly shown) [Compound 134], the IC50 is at most 50 nM.

Turning to `CS(=O)(=O)CCn1cc(CN2CCC3(CC2)CNc2ccc(Cl)cc23)cn1` [Compound 305, 5-chloro-1′-[[1-(2-methylsulfonylethyl)pyrazol-4-yl]methyl]spiro[indoline-3,4′-piperidine]], the IC50 is at least 500 nM.

For `C[C@H]1C[C@@]2(CCN1Cc1cnn(CCO)c1)C(=O)Nc1ccc(Cl)cc12` [Compound 75], the IC50 is 50 to 500 nM. Regarding `CNc1cnc(Cn2cc(CN3CC[C@]4(C[C@@H]3C)OCCc3ccc(Cl)cc34)nn2)cn1` [Compound 162], the IC50 is 50 to 500 nM. On to `C[C@H]1CC2(CCN1Cc1cnn(CCS(C)(=O)=O)c1)C(=O)Nc1ccc(Cl)cc12` (stereo in doubt) [Compound 74, (2′S, 3R)-5-chloro-2′-methyl-1′-[[1-(2-methylsulfonylethyl)pyrazol-4-yl]methyl]spiro[indoline-3,4′-piperidine]-2-one], for which the IC50 was at least 500 nM.

In the case of `Cc1ccc2c(c1)C1(CCN(Cc3cnn(C)c3)C(C)C1)OCC2` (stereo not shown) [Compound 93], the IC50 is at most 50 nM. With `CS(=O)(=O)CCn1cc(CN2CCC3(CC2)C(=O)Nc2ccc(C(F)F)cc23)cn1` [Compound 33] the figure was 50 to 500 nM; with `CN1C(=O)C2(CCN(Cc3cnn(CC4(O)CCS(=O)(=O)CC4)c3)CC2)c2cc(Cl)ccc21` [Compound 54], 50 to 500 nM; with `NC(=O)C1OC2(CCN(Cc3cnn(-c4cccc(C(F)(F)F)c4)c3)CC2)c2cc(Cl)ccc21` (stereo not shown) [Compound 212, 5-chloro-1′-[[1-[3-(trifluoromethyl)phenyl]pyrazol-4-yl]methyl]spiro[1H-isobenzofuran-3,4′-piperidine]-1-carboxamide], at most 50 nM.

Take `CNC(=O)C1OC2(CCN(Cc3cnn(-c4ccccc4)c3)CC2)c2cc(C#N)ccc21` (stereo not shown) [Compound 204, 5-cyano-N-methyl-1′-[(1-phenylpyrazol-4-yl)methyl]spiro[1H-isobenzofuran-3,4′-piperidine]-1-carboxamide]: the IC50 was in the range of 50 to 500 nM. For the molecule `Cn1cc(CN2CCC3(CC2)OC(C(N)=O)c2ccc(Cl)cc23)cn1` (stereo not shown) [Compound 216], the IC50 was at most 50 nM. With `C[C@H]1C[C@@]2(CCN1Cc1cnn(-c3ccccn3)c1)OCCc1ccc(Cl)cc12` [Compound 117] the figure was at most 50 nM.
